Experimental data: patent US9227956B2 (Pfizer Inc., priority 2013, dated 2016)
pIC50: −log10 of the molar value.

How the values were obtained:
[1] = system: PCSK9; assay: PCSK9 lowering in sandwich culture human hepatocytes (SCHH); type: cell-based; conditions: maximum response versus vehicle
Description: Test compound in-vitro pharmacokinetic and pharmacodynamic relationships were measured in sandwich culture primary cryopreserved human hepatocytes. Within these studies SCHH cells (BD Biosciences IVT) were thawed at 37° C. then placed on ice, after which the cells were added to pre-warmed (37° C.) In VitroGRO-HT media and centrifuged at 50×g for 3 min. The cell pellet was re-suspended to 0.8×10^6 cells/mL in InVitroGRO-CP plating medium and cell viability determined by trypan blue exclusion. On day 1, hepatocyte suspensions were plated in BioCoat 96-well plates at a density of 80000 cells/well in a volume of 0.1 mL/well. After 18 to 24 hours of incubation at 37° C. in 5% CO2, cells were overlaid with ice-cold 0.25 mg/mL BD Matrigel Matrix Phenol Red-Free in incubation medium at 0.1 mL/well. Cultures were maintained at 37° C. in 5% CO2 in InVitroGRO-HI (FBS-free media), which was replaced every 24 hours and time course treatments were initiated on day 5. Prior to compound treatment cell plates were washed 3 times with 0.1 mL/well InVitroGRO-HI and 0.09 mL of media was added back in preparation for the compound additions. 1 uL of either DMSO or compound DMSO stocks at 30 mM, 10 mM, 3 mM and 1 mM were stamped into 96 well V bottom polypropylene plates. 0.099 mL of media was added to the compound plate and mixed thoroughly before the addition of 0.010 mL from the interim compound plate to the cell plate. […] At the indicated time, 0.08 mL of media was removed from the cell plates and frozen for subsequent analysis of secreted PCSK9 by AlphaLISA and for determination of drug levels in the media by liquid chromatography-tandem mass spectrometry (LC-MS/MS). The remaining media was then aspirated and the cell layers were washed 3× with ice cold Hanks Balanced Salt Solution (HBSS) under shaking conditions to remove the matrigel overlay and plates were then stored at −20° C. for subsequent determination of drug levels in the cells by LC-MS/MS. AlphaLISA determination of PCSK9 protein levels within the conditioned media was performed ultilizing the identical reagents and detection protocols described above for the WT7 cells.

[2] = system: human PCSK9; assay: PCSK9 AlphaLISA assay, PCSK9 lowering in WT7 cells; conditions: WT7 cells (Huh7 stably over-expressing human PCSK9); secreted PCSK9 by AlphaLISA; overnight incubation (16-24 h); top concentration 20 μM; read-out: Cell Based PCSK9 IC50
Source text: An in-vitro AlphaLISA assay (Perkin Elmer) was developed in order to quantitate the level of PCSK9 secreted into the cell culture media following compound treatment. To detect and measure PCSK9 protein an in-house generated anti-PCSK9 antibody was coupled to AlphaLISA acceptor beads by an external vendor (PerkinElmer) and a second internally developed anti-PCSK9 antibody with an epiptope distinct from that of the acceptor beads was biotinylated in house. Streptavidin coated-donor beads (Perkin Elmer) are also included in the assay mixture which then binds the biotinylated anti-PCSK9 antibody and in the presence of PCSK9 this donor complex and acceptor beads are brought into close proximity. […] The ability of compound to modulate PCSK9 protein levels in conditioned media by AlphaLISA was assessed in the human hepatocellular carcinoma cell line Huh7, stably over-expressing human PCSK9. […] Following plasmid transfection the stable WT7 clone was identified and maintained under Zeocin selection. Compound screening was performed in 384-well plates where WT7 cells were plated at a density of 7500 cells per well in 20 μL of tissue culture media containing compound in an eleven point, 0.5 log dilution format at a high treatment concentration of 20 μM in a final volume of 0.5% DMSO. In additional to these test compound conditions each screening plate also included wells that contained 20 μM puromycin as a positive assay control defined as high percent effect, HPE, as well as wells containing media in 0.5% DMSO as a negative treatment control defined as zero percent effect, ZPE. After overnight compound incubation (16-24 h) the tissue culture media was collected and an aliquot from each sample was transferred to individual wells of a 384-well white Optiplate (Perkin Elmer). The coupled antibodies and donor beads were added to the assay plates in a buffer composed of 30 mM Tris pH 7.4, 0.02% Tween-20 and 0.02% Casein. Anti-PCSK9 acceptor beads (final concentration of 10 μg/mL) and anti-PCSK9 biotinylated antibody (final concentration of 3 nM) were added and incubated for 30 minutes at room temperature followed by the addition of the streptavidin donor beads (final concentration 40 μg/mL) for an additional 60 minutes. Additionally a standard curve was generated where AlphaLISA reagents were incubated in wells spiked with recombinant human PCSK9 diluted in tissue culture media from 5000 ng/mL to 0.6 ng/mL. […] The test compound data were converted into percent effect, using the ZPE and HPE controls as 0% and 100% activity, respectively. The equation used for converting each well reading into percent effect was:
[formula] IC50 was then calculated and reported as the midpoint in the percent effect curve in molar units and the values are reported under the Cell Based PCSK9 IC50 (μM) column header within Table 1 Biological Data. Additionally, to monitor the selectivity of compound response for PCSK9 the level of a second secreted protein, Transferrin, was measured from the same conditioned media treated with test compound by AlphaLISA. […] To detect and quantify effects on Transferrin 0.01 mL of the culture media was transferred to a 384-well white Optiplate and 0.01 mL of media was added to bring the volume to 0.02 ml. Anti-Transferrin acceptor beads were added to a final concentration of 10 μg/mL, biotinylated anti-Transferrin at 3 nM and streptavidin donor beads at 40 μg/mL. Percent effect and IC50 for Transferrin was computed in a similar manner as that described for PCSK9.

[3] = system: human PCSK9; assay: Cell Free PCSK9 Assay (PCSK9-luciferase RNA translated in HeLa cell lysate); type: biochemical; conditions: 30° C. for 45 minutes, luciferase readout, top concentration 100 μM
Description: In order to eliminate the permeability barrier inherent to the WT7 and SCHH cell-based assays a cell-free system was also established to access compound activity. […] The construct was then in-vitro transcribed using the MEGAscript T7 Kit (Life Technologies) and RNA subsequently purified incorporating the MEGAclear Kit (Life Technologies) according to manufacturer's protocols. […] Growth was in a 50 L wavebag at a rocker speed of 25 rpm and angle 6.1 with 5% CO2 and 0.2 LPM flow rate with cells harvested at a density of 2-2.5e6/ml. Lysates additionally contained 1 tablet of Roche cOmplete-EDTA protease inhibitors per 50 ml with tris(2-carboxyethyl)phosphine (Biovectra) substituted for dithiothreitol, and were clarified by an additional final centrifugation at 10,000 rpm in a Sorvall SS34 rotor at 4° C. for 10 minutes. Compound screening was performed in 384-well plates in an eleven point, 0.5 log dilution format at a top test compound concentration of 100 μM in a final volume of 0.5% DMSO. […] Upon assay completion 1 μL from each reaction solution was removed and transferred to a second 384-well Optiplate (Perkin Elmer) containing 24 μL of SteadyGlo (Promega) and signal intensity was measured on the Envision (Perkin Elmer) using the enhanced luminescence protocol. […] The test compound data were converted into percent effect, using the ZPE and HPE controls as 0% and 100% activity, respectively, applying Equation 1 above. IC50 was then calculated and reported as the midpoint in the percent effect curve in molar units and the values are reported under the Cell Free PCSK9 IC50 (μM) column header within Table 1 Biological Data.

| SMILES | Sandwich Culture Hepatocyte (SCHH) PCSK9 Lowering ([1]; at 6 h at 30 uM) [% at 6 h at 30 uM] | pIC50 [2] | pIC50 [3] | Sandwich Culture Hepatocyte (SCHH) PCSK9 Lowering ([1]; at 8 h at 30 μM) |
| --- | --- | --- | --- | --- |
| CCC(=O)OC(CC)n1nnc(-c2c(-c3ccc(C(=O)N(c4ncccc4C)[C@@H]4CCCNC4)cc3)cnn2C)n1 (single isomer, unassigned) [Example 47] | 12 | < 4.70 |  |  |
| O=C(c1ccc(-c2cnn3cccnc23)cc1)N(c1ncccc1Cl)[C@@H]1CCCNC1 [Example 2, N-(3-chloropyridin-2-yl)-N-[(3R)-piperidin-3-yl]-4-(pyrazolo[1,5-a]pyrimidin-3-yl)benzamide] |  | 5.77 | 6.16 |  |
| Cn1ncc(-c2ccc(C(=O)N(c3nccc4ccccc34)[C@@H]3CCCNC3)cc2)c1C(=O)O [Example 4, 4-(4-{isoquinolin-1-yl[(3R)-piperidin-3-yl]carbamoyl}phenyl)-1-methyl-1H-pyrazole-5-carboxylic acid] |  | < 4.70 | 5.42 |  |
| CCOC(=O)OC(C)OC(=O)c1c(-c2ccc(C(=O)N(c3nccc4ccccc34)[C@@H]3CCCNC3)cc2)cnn1C (stereo partly drawn) [Example 11, 1-[(ethoxycarbonyl)oxy]ethyl 4-(4-{isoquinolin-1-yl[(3R)-piperidin-3-yl]carbamoyl}phenyl)-1-methyl-1H-pyrazole-5-carboxylate] |  |  | 5.68 |  |
| CCOC(=O)OC(C)OC(=O)c1c(-c2ccc(C(=O)N(c3nccc4ccn(C)c34)[C@@H]3CCCNC3)cc2)cnn1C (stereo partly drawn) [Example 14, 1-[(ethoxycarbonyl)oxy]ethyl 1-methyl-4-(4-{(1-methyl-1H-pyrrolo[2,3-c]pyridin-7-yl)[(3R)-piperidin-3-yl]carbamoyl}phenyl)-1H-pyrazole-5-carboxylate] |  | 5.35 |  | 54% at 8 h at 30 μM |
| CCOC(=O)OC(C)n1nnnc1-c1c(-c2ccc(C(=O)N(c3ncccc3C)[C@@H]3CCCNC3)cc2)cnn1C (some centres unmarked) [Example 21] | 57 | < 4.70 |  |  |
| Cn1ncc(-c2ccc(C(=O)N(c3ncccc3Cl)[C@@H]3CCCNC3)cc2)c1C(=O)NS(=O)(=O)C(F)(F)F [Example 22, 4-(4-{(3-chloropyridin-2-yl)[(3R)-piperidin-3-yl]carbamoyl}phenyl)-1-methyl-N-[(trifluoromethyl)sulfonyl]-1H-pyrazole-5-carboxamide] |  | < 4.70 | 5.24 |  |
| Cn1ncc(-c2ccc(C(=O)N(c3ncccc3Cl)[C@@H]3CCCNC3)cc2)c1C(=O)Nc1nnn[nH]1 [Example 24, 4-(4-{(3-chloropyridin-2-yl)[(3R)-piperidin-3-yl]carbamoyl}phenyl)-1-methyl-N-(1H-tetrazol-5-yl)-1H-pyrazole-5-carboxamide] |  | < 4.70 | 4.60 |  |
| Cn1ncc(-c2ccc(C(=O)N(c3ncccc3Cl)[C@@H]3CCCNC3)cc2)c1C(=O)NO [Example 25, 4-(4-{(3-chloropyridin-2-yl)[(3R)-piperidin-3-yl]carbamoyl}phenyl)-N-hydroxy-1-methyl-1H-pyrazole-5-carboxamide] |  | < 4.70 | 5.53 |  |
| Cn1ncc(-c2ccc(C(=O)N(c3ncccc3Cl)[C@@H]3CCCNC3)cc2)c1-c1nn[nH]n1 [Example 26, N-(3-chloropyridin-2-yl)-4-[1-methyl-5-(2H-tetrazol-5-yl)-1H-pyrazol-4-yl]-N-[(3R)-piperidin-3-yl]benzamide] |  | < 4.70 | 5.24 |  |
| Cn1ncc(-c2ccc(C(=O)N(c3ncccc3Cl)[C@@H]3CCCNC3)cc2)c1C(=O)NS(C)(=O)=O [Example 27, 4-(4-{(3-chloropyridin-2-yl)[(3R)-piperidin-3-yl]carbamoyl}phenyl)-1-methyl-N-(methylsulfonyl)-1H-pyrazole-5-carboxamide] |  | < 4.70 | 4.84 |  |
| Cc1cccnc1N(C(=O)c1ccc(-c2cnn(C)c2C(=O)NS(C)(=O)=O)cc1)[C@@H]1CCCNC1 [Example 28, 1-methyl-4-(4-{(3-methylpyridin-2-yl)[(3R)-piperidin-3-yl]carbamoyl}phenyl)-N-(methylsulfonyl)-1H-pyrazole-5-carboxamide] |  | < 4.70 | 4.77 |  |
| CCOC(=O)OC(C)N(C(=O)c1c(-c2ccc(C(=O)N(c3ncccc3C)[C@@H]3CCCNC3)cc2)cnn1C)S(C)(=O)=O (stereo partly drawn) [Example 29, ethyl 1-[{[1-methyl-4-(4-{(3-methylpyridin-2-yl)[(3R)-piperidin-3-yl]carbamoyl}phenyl)-1H-pyrazol-5-yl]carbonyl}methylsulfonyl)amino]ethyl carbonate] | 72 | < 4.70 |  |  |
| CCOC(=O)O[C@@H](C)n1nnc(-c2c(-c3ccc(C(=O)N(c4ncccc4C)[C@@H]4CCCNC4)cc3)cnn2C)n1 [Example 30, ethyl (1S)-1-{5-[1-methyl-4-(4-{(3-methylpyridin-2-yl)[(3R)-piperidin-3-yl]carbamoyl}phenyl)-1H-pyrazol-5-yl]-2H-tetrazol-2-yl}ethyl carbonate] |  | < 4.78 |  | 11% at 8 h at 30 uM |
| CCOC(=O)O[C@H](C)n1nnc(-c2c(-c3ccc(C(=O)N(c4ncccc4C)[C@@H]4CCCNC4)cc3)cnn2C)n1 [Example 31, ethyl (1R)-1-{5-[1-methyl-4-(4-{(3-methylpyridin-2-yl)[(3R)-piperidin-3-yl]carbamoyl}phenyl)-1H-pyrazol-5-yl]-2H-tetrazol-2-yl}ethyl carbonate] |  | < 4.70 |  | 19% at 8 h at 30 uM |
